The source of these data is patent US20220331348A1, “METHOD OF PREPARING PENTACYCLIC TRITERPENOID SAPONINS AND DRUG COMPOSITION” (CHINA PHARMACEUTICAL UNIVERSITY, priority 2019, published 2022).

Experiment [1] relates to human ADPKD cyst lining epithelial cell lines WT9-12. Kind of experiment: Proliferation of polycystic kidney epithelial cells (CCK-8 method). Format: cell-based. The note with it: 48 h; for inhibition at 10 µM: read-out: Inhibition rate (%). From the text: Cell and reagent: complete media for human ADPKD cyst lining epithelial cell lines WT9-12 and DMEM were purchased from ATCC Company; fetal calf serums were purchased from Gibco Company; Cell Counting Kit-8 was purchased from DOJINDO Company; Click-iT® EdU Imaging Kits were purchased from Invitrogen™ Thermo Fisher Scientific Company; Caspase -3/CPP32 Colorimetric Assay Kit was purchased from BioVision Company; Annexin V/PI double-staining flow type cell apoptosis detection kits were purchased from Bender Company; and anti-Phospho-(AMPKa, mTOR, p70S6K, 4E-BP1) antibodies were purchased from Cell Signaling Technology Company.
The influence of 2-DG on proliferation of the polycystic kidney epithelial cells was detected with a CCK-8 method: a DMEM complete medium containing 10% fetal calf serum (FBS) was prepared. The polycystic kidney epithelial cells were cultured in an incubator with 5% CO2 at 37° C. after being recovered, a solution was replaced every other day, the polycystic kidney epithelial cells were passaged every 2-3 days, and the cells were in a growing state of adhering to the wall. After trypsin enzyme digestion, cells were resuspended by using a complete medium, the concentration of a polycystic kidney epithelial cell suspension was regulated to be 3×10^7/L, the polycystic kidney epithelial cell suspension was inoculated to 96-well plate by […] per well for culture for 24 h, and the suspension was replaced by a culture medium containing 0.1% FBS for synchronization for 24 h.

The test system of experiment [2] is TNBS modeled Crohn's disease model mice. In words: 2,4,6-trinitrobenzene sulfonic acid (TNBS) modeled Crohn's disease model mice. Format: in vivo, mouse. The note with it: for colon length of the treatment group compared with the control group / expression level of inflammatory factor IL-1β / expression level of inflammatory factor TNF-α: dose not given; for expression level of inflammatory factor IL-1β / expression level of inflammatory factor TNF-α: vs model group. On the procedure: C57BL/6 male mice with 6-8 weeks old were selected and randomly divided into a control group, a mode group, a treatment group and a positive control group. Expect for the control group, after the mice in the rest groups anesthetized with isoflurane, hoses were carefully inserted into colons of the mice from anuses, and […] of 1.5% 2,4,6-trinitrobenzene sulfonic acid (TNBS) was slowly injected. Before the hoses were pulled out, the mice were placed upside down for 1 min. First intragastric administration was conducted at the day of enema treatment, the mice in the control group and the model group were orally administered with carboxymethyl cellulose sodium as a placebo, the mice in the treatment group were orally administered with the ziyuglycoside II (purchased from Shanghai Boka Chemistry Technology Co., Ltd) (with a dosage of 5 mg/kg), and the mice in the positive drug group were orally administered with 5-aminosalicylic acid as a clinical drug (5-ASA, purchased from Shanghai Sangon Biological Engineering Co., Ltd) (with a dosage of 100 mg/kg). Administration was continuously conducted for 7 days. In the administration process, the states of the mice were observed every day, and weight changes of the mice were recorded.
Differences in weight change of the mice in various groups were compared, from which, ziyuglycoside II has the treatment effect on the 2, 4, 6-trinitrobenzene sulfonic acid (TNBS) modeled Crohn's disease model mice.
The above mice were sacrificed by cervical dislocation at day 8, colon tissues were harvested, lengths of the colon tissues were measured for statistical summary, and differences in colon length of various groups were compared, from which, the ziyuglycoside II has significant treatment effect on the Crohn's disease model mice. […] 10 mg of proximal rectum segments of the colon tissues of the above mice were selected, PBS was added for homogenization, and centrifugation was conducted for taking a supernate. The supernate was subjected to ELISA detection, and protein quantification was conducted for inflammatory factors TNF- and IL-1. […] Myeloperoxidase (MPO) is an enzyme specific to neutrophils, and the amount of the neutrophils in the intestinal tracts may be reflected by detecting the MPO level. 5 mg of proximal rectum segments of the colon tissues of the above mice were selected, PBS was added for homogenization, and the content of the MPO in a homogenate was detected with a MPO kit (purchased from Nanjing Jiancheng Bioengineering Institute). […] Therefore, the ziyuglycoside II is expected to be useful for preparing the drug for preventing or treating the inflammatory bowel diseases such as the Crohn's disease.

For the next experiment, the system named is AMPK in Huh-7 cells. In words: Activation activity on AMPK in Huh-7 cells (Western Blot). The note with it: 10 μM, 12 h, Western Blot gray scale, relative to DMSO = 1. Format: cell-based. On the procedure: The activation activity of a compound on AMPK in Huh-7 cells was detected by using Western Blot.
Cell culture conditions: Huh-7 cells were cultured in an incubator with 5% CO2 at 37° C. in DMEM complete medium (containing 10% fetal calf serum and 1% streptomycin/penicillin).
Antibody: anti-AMPK (CST, 2532S); anti-pAMPK (CST, 2535S).
Western Blot experiment: the influence of the compound on phosphorylation level of the AMPK in the Huh-7 cells was detected: cells with more than 90% cells alive were taken for the experiment. In a 12-well plate, the Huh-7 cells were plated in the plate at 250000 cells per well, the plate was placed in the incubator with 5% CO2 at 37° C. for culture, an original culture medium was discarded after 12 h, a complete medium containing the pentacyclic triterpenoid saponin was added, a final concentration of subject pentacyclic triterpenoid saponin was set to be 10 μM, and an administration time was set to be 12 h. A positive control compound employs AICAR (100 μM), metformin (70 μM) or A-769662 (100 μM). Then proteins were extracted for Western Blot detection.
Experimental result: a Western Blot experimental result was subjected to gray scale scanning, a p-AMPK/AMPK ratio of negative control DMSO was defined as 1, and a p-AMPK/AMPK ratio of the subject compound was a relative ratio of a negative control group. The larger the numerical value was, the stronger the activation activity of the AMPK of the compound was.

The mark [3] stands for this setting: Homo sapiens, Epithelial cell, polycystic kidney epithelial cells, 10 μM, CCK-8, n = 6.
The mark [4] stands for this setting: 5 mg/kg orally, vs model group (FIG. 14 A).

Take `CC1(C)CC[C@]2(C(=O)O[C@@H]3O[C@H](CO)[C@@H](O)[C@H](O)[C@H]3O)CC[C@]3(C)C(=CC[C@@H]4[C@@]5(C)CC[C@H](O[C@@H]6O[C@H](C(=O)O)[C@@H](O)[C@H](O)[C@H]6O[C@@H]6O[C@H](CO)[C@@H](O)[C@H](O)[C@H]6O)C(C)(C)[C@@H]5CC[C@]43C)[C@@H]2C1` [(I), ginsenoside Ro]: the inhibition at 10 µM in experiment [1] (setting [3]) worked out at 74.4 ± 2.3%. Also, in experiment [2], the “colon length of the treatment group compared with the control group” value (“colon length … compared with the control group” for short) is recorded as “nearly no difference”, the “expression level of inflammatory factor IL-1β” value was “significantly lower than those of the model group” and the “expression level of inflammatory factor TNF-α” value is on record as “significantly lower than those of the model group”. In addition, in the experiment on AMPK in Huh-7 cells, the pAMPK/AMPK ratio came out at 2.39.

On to `CC1(C)CC[C@]2(C(=O)O[C@@H]3O[C@H](CO[C@@H]4O[C@H](CO)[C@@H](O)[C@H](O)[C@H]4O)[C@@H](O)[C@H](O)[C@H]3O)CC[C@]3(C)C(=CC[C@@H]4[C@@]5(C)CC[C@H](O[C@@H]6OC[C@H](O)[C@H](O)[C@H]6O)[C@@](C)(CO)[C@@H]5CC[C@]43C)[C@@H]2C1` [(II), asperosaponin VI], for which the IC50 in experiment [1] (Homo sapiens, Epithelial cell, WT9-12 cells, CCK-8 (FIG. 15), read-out: median inhibitory concentration (IC50), proliferation of the polycystic kidney epithelial cells) was 3.2 µM. Further, in experiment [2], the “colon length … compared with the control group” value was “nearly no difference”, the “expression level of inflammatory factor IL-1β” value is recorded as “significantly lower than those of the model group” and the “expression level of inflammatory factor TNF-α” value is listed as “significantly lower than those of the model group”. In addition, the pAMPK/AMPK ratio in the experiment with AMPK in Huh-7 cells turned out to be 2.90.

`C[C@H]1O[C@@H](O[C@H]2CC[C@@]3(C)[C@@H](CC[C@]4(C)[C@@H]3C=C[C@]35OC[C@@]6(CCC(C)(C)C[C@H]63)[C@@H](O)C[C@]54C)[C@]2(C)CO)[C@H](O)[C@@H](O[C@@H]2O[C@H](CO)[C@@H](O)[C@H](O)[C@H]2O)[C@H]1O` [(VII), saikosaponin A]: in experiment [2], the “colon length … compared with the control group” value is “nearly no difference”, the “expression level of inflammatory factor IL-1β” value is “significantly lower than those of the model group” and the “expression level of inflammatory factor TNF-α” value is “significantly lower than those of the model group”. The pAMPK/AMPK ratio in the experiment on AMPK in Huh-7 cells turned out to be 1.76.

Regarding `C[C@H]1O[C@@H](O[C@H]2CC[C@@]3(C)[C@@H](CC[C@]4(C)[C@@H]3C=C[C@]35OC[C@@]6(CCC(C)(C)C[C@H]63)[C@H](O)C[C@]54C)[C@]2(C)CO)[C@H](O)[C@@H](O[C@@H]2O[C@H](CO)[C@@H](O)[C@H](O)[C@H]2O)[C@H]1O` [(VIII), saikosaponin D], in experiment [2], the “colon length … compared with the control group” value is “nearly no difference”, the “expression level of inflammatory factor IL-1β” value was “significantly lower than those of the model group” and the “expression level of inflammatory factor TNF-α” value is given as “significantly lower than those of the model group”. The pAMPK/AMPK ratio in the experiment on AMPK in Huh-7 cells worked out at 2.0.

Regarding `C[C@@H]1O[C@@H](O[C@H]2[C@H](O[C@H]3CC[C@@]4(C)[C@@H](CC[C@]5(C)[C@@H]4CC=C4[C@@H]6CC(C)(C)CC[C@]6(C(=O)O)CC[C@]45C)[C@]3(C)CO)OC[C@H](O)[C@@H]2O)[C@H](O)[C@H](O)[C@H]1O` [(X), α-hederin], the inhibition at 10 µM in experiment [1] (setting [3]) came out at 80.5 ± 3.2%. Also, in experiment [2], the “colon length … compared with the control group” value is reported as “nearly no difference”, the “expression level of inflammatory factor IL-1β” value is “significantly lower than those of the model group” and the “expression level of inflammatory factor TNF-α” value is given as “significantly lower than those of the model group”. Also, the pAMPK/AMPK ratio in the experiment on AMPK in Huh-7 cells is listed as 3.33.

As to `C[C@@H]1O[C@@H](O[C@H]2[C@H](O[C@H]3CC[C@@]4(C)[C@@H](CC[C@]5(C)[C@@H]4CC=C4[C@@H]6CC(C)(C)CC[C@]6(C(=O)O[C@@H]6O[C@H](CO[C@@H]7O[C@H](CO)[C@@H](O[C@@H]8O[C@@H](C)[C@H](O)[C@@H](O)[C@H]8O)[C@H](O)[C@H]7O)[C@@H](O)[C@H](O)[C@H]6O)CC[C@]45C)[C@]3(C)CO)OC[C@H](O)[C@@H]2O)[C@H](O)[C@H](O)[C@H]1O` [(XI), hederacoside C], the “Inhibition rate (%)” value in experiment [1] (polycystic kidney epithelial cells, 10 μM, CCK-8, n = 6) amounted to 64.4 ± 2.6 %. Moreover, in experiment [2], the “colon length … compared with the control group” value is given as “nearly no difference”, the “expression level of inflammatory factor IL-1β” value is listed as “significantly lower than those of the model group” and the “expression level of inflammatory factor TNF-α” value is on record as “significantly lower than those of the model group”. For the same molecule, the pAMPK/AMPK ratio in the experiment on AMPK in Huh-7 cells worked out at 1.95.

In the case of `C[C@@H]1CC[C@]2(C(=O)O[C@@H]3O[C@H](CO)[C@@H](O)[C@H](O)[C@H]3O)CC[C@]3(C)C(=CC[C@@H]4[C@@]5(C)CC[C@H](O[C@@H]6OC[C@H](O)[C@H](O)[C@H]6O)C(C)(C)[C@@H]5CC[C@]43C)[C@@H]2[C@]1(C)O` [(XII), ziyuglycoside I], in experiment [1] (setting [3]), the inhibition at 10 µM is 69.2 ± 1.7%. Further, in experiment [2], the “colon length … compared with the control group” value is listed as “nearly no difference”, the “expression level of inflammatory factor IL-1β” value is “significantly lower than those of the model group” and the “expression level of inflammatory factor TNF-α” value is reported as “significantly lower than those of the model group”. Further, the pAMPK/AMPK ratio with AMPK in Huh-7 cells is on record as 2.45.

Take `C[C@@H]1CC[C@]2(C(=O)O)CC[C@]3(C)C(=CC[C@@H]4[C@@]5(C)CC[C@H](O[C@@H]6OC[C@H](O)[C@H](O)[C@H]6O)C(C)(C)[C@@H]5CC[C@]43C)[C@@H]2[C@]1(C)O` [(XIII), ziyuglycoside II]: in experiment [1] (setting [3]), the inhibition at 10 µM turned out to be 72.1 ± 2%. Also, the “content of the MPO in colon tissues” value in experiment [2] (5 mg/kg (FIG. 14 B)) is “significantly lowered”. Further, the “drop scope of weight loss” value in experiment [2] (5 mg/kg orally, 7 days, vs model group (FIG. 13 A)) is given as “obviously lower than that of the model group”. In experiment [2] (5 mg/kg orally, day 8, vs model group (FIG. 13 B)), the colon lengths entry is “significantly larger than those of the model group”. In experiment [2] (setting [4]), the “expression level of inflammatory factor IL-1 in colon tissue (ELISA)” value is “significantly lower than those of the model group” and the “expression level of inflammatory factor TNF- in colon tissue (ELISA)” value is reported as “significantly lower than those of the model group”. For the same molecule, in experiment [2], the “colon length … compared with the control group” value was “nearly no difference”, the “expression level of inflammatory factor IL-1β” value is on record as “significantly lower than those of the model group” and the “expression level of inflammatory factor TNF-α” value was “significantly lower than those of the model group”. Besides, in the experiment on AMPK in Huh-7 cells, the pAMPK/AMPK ratio came to 2.51.
